Experiment in one series: not given
As to conditions: estimated in DMSO; arm —C(═O)—N—R2R3 of Formula I; cited from earlier work.
In the case of `CC(=O)NC/C=C1\SC(=O)NC1=O`, the “pKa (approx.)” value is listed as approximately 6.8.

For `CC(=O)NCCc1ccc(S(=O)(=O)C[N+](=O)[O-])cc1`, the “pKa (approx.)” value is on record as approximately 7.1.

`CC(=O)NCCc1cc([N+](=O)[O-])ccc1S`: the “pKa (approx.)” value was approximately 5.5.

In the case of `CC(=O)NCCc1ccc(C(=O)C[N+](=O)[O-])cc1`, the “pKa (approx.)” value is approximately 7.7.

As for `CC(=O)NCCc1cc([N+](=O)[O-])cc([N+](=O)[O-])c1O`, the “pKa (approx.)” value is approximately 5.1.

For the compound `CC(=O)NCCc1ccc(C(C#N)C#N)cc1`, the “pKa (approx.)” value was approximately 4.2.

As for `CC(=O)NCCS(=O)(=O)O`, the “pKa (approx.)” value is listed as approximately 1.6.

A short description of the next series: Measurement of r1 and r2 relaxivities (Bruker mq60 relaxometer). It counts as physicochemical. The following applies: in water at 60 MHz and 40° C. The procedure: Manganese containing chelates were dissolved in water at concentrations ranging from […] Mn. T1 and T2 relaxation times were then measured at 60 MHz and 40° C. using a Bruker mq60 relaxometer. Linear fits (R^2>0.99 in all cases) of 1/T1 or 1/T2 as a function of Mn concentration gave r1 or r2 values respectively.
The values in Table 1 are relaxivities in water. The r1 value represents the ability of the chelate to generate T1 (or positive) contrast in a MR scanner while the r2 value represents the ability of the chelate to generate T2 (or negative) contrast in a MR scanner.
`CN1CCN2Cc3cccc(n3)CN(CC1)C(CCC(=O)NCCS(=O)(=O)O)C(=O)[O][Mn][O]C(=O)C2CCC(=O)NCCS(=O)(=O)O` (stereo not shown) [Mn Chelate 1] came in with a r1 relaxivity of 3.4 mM⁻¹ s⁻¹.

In turn, `CN1CCN2Cc3cccc(n3)CN(CC1)C(CCCCNC(=O)[C@H](O)[C@@H](O)C(=O)O)C(=O)[O][Mn][O]C(=O)C2CCCCNC(=O)[C@H](O)[C@@H](O)C(=O)O` (stereo partly shown) [Mn Chelate 2] yielded a r1 relaxivity of 4.6 mM⁻¹ s⁻¹.

The compound `CN1CCN2CC(=O)[O][Mn][O]C(=O)CN(CC1)Cc1cccc(n1)C2` [Mn Platform, reference compound] had a r1 relaxivity of 1.7 mM⁻¹ s⁻¹.
